Measured values: patent US8921306B2 (The University of Queensland, priority 2010, dated 2014)

What was measured:
[1] = Serum stability in normal human serum; format: in vitro ADME; settings: 37° C., LCMS, read-out: half-life (t1/2) in normal human serum
Method: Peptide stability was assessed in normal human serum (Sigma-Aldrich, NY, USA). The peptides were incubated with the serum in a water bath at 37° C. and aliquots were removed at specific time points. Serum proteins were precipitated after adding 3-fold excess acetonitrile, and proteins were precipitated by centrifugation at 17,000 rpm for 15 min. The supernatants were collected and analyzed by LCMS (4000 QTRAPR, Applied Biosystems) and all data normalized to the initial time point.

Human erythrocytes = experiment: Haemolysis assay; format: cell-based; settings: 37° C., 1 hour, absorbance at 544 nm
Method: Human erythrocytes were obtained from the Australian Red Cross Blood Service and diluted with PBS (pH 7.4) 1:50 to give a positive control reading of between 1.5-2.0 at 544 nm.
Equal amounts of cells were incubated with various concentrations of peptides and incubated at 37° C. for 1 hour. Cells were pelleted by centrifugation at 17,000 rpm for 5 minutes on a bench top centrifuge and the supernatant was collected. Haemolysis was assessed by reading the absorbance at 544 nm and normalized to 0% (PBS) and 100% (0.1% Triton-X100). This work was done with UQ ethics (200600011) and ARCBS (08-01QLD-07) approval.

ORL-1 receptor [2] = biological target: T1, ORL-1 receptor (Mus musculus, UniProt P35377); experiment: Agonist functional activity assessed by ERK phosphorylation (pERK) in Neuro-2a cells; format: cell-based
T1 construct: Neuro-2a cells were a gift from Professor John Mattick's laboratory; endogenous in cells; host or cells: Neuro-2a cells
Method: (§1) Neuro-2a cells were a gift from Professor John Mattick's laboratory (Institute of Molecular Bioscience, University of Queensland) and were cultured in Gibco® DMEM (Invitrogen, CA, USA) supplemented with 10% FBS (Invitrogen, CA, USA), GIBCO® Pen/Strep (50 units/mL penicillin and 50 μg/mL streptomycin, Invitrogen, CA, USA) and GIBCO® NEAA (1× concentration, Invitrogen, CA, USA). Cells were split 1:10 every 3 days.
(§2) All cells were incubated at 37° C. and 5% CO2. When treated with pertussis toxin (PTX, catalogue number P7208, Sigma-Aldrich, NY, USA), cells were incubated with 500 ng/mL for 15 hours before use. Cells treated with MEK inhibitor PD98059 (catalogue number PHZ1164, Invitrogen, CA, USA) were preincubated with 50 μM for 1 hour before use.
(§3) Cells were placed in 12-well plates (NUNC™, NY, USA) and allowed to adhere for 24-36 h. […]
(§4) Membranes were washed 3×10 minutes with TBE (with 0.1% Tween-20) and incubated with a primary antibody. […] Radiography was quantified using ImageJ (ImageI 1.36b, NIH).
(§5) pERK and total ERK concentrations were determined using a modified protocol for the AlphaScreen Surefire Assay. […] The ratio of pERK to total ERK was determined using equation 1 and normalized to control. […]
(§6) Concentration responses were analyzed using non-linear regression (variable slope) (Prism5, GraphPad Software) and data is presented as either EC50 (for agonists) or IC50 (antagonists). […]

circular dichroism = settings: 10 mM phosphate; pH 7.4; 22 °C; 50-400 uM
[3] = Circular dichroism spectroscopy (helicity); format: physicochemical
Method: CD measurements were performed using a Jasco model J-710 spectropolarimeter which was routinely calibrated with (1S)-(+)-10-camphorsulfonic acid. A stock solution of 1-2 mg of peptide was dissolved in 1 mL of water. Separate 500 μL solutions of 50, 100, 200 and 400 μM were then prepared using an appropriate amount of stock solution and making up the different with 10 mM Phosphate Buffer (final pH 7.1). […] Jasco quartz cell over the wavelength range 260-185 nm at 100 nm/min. with a bandwidth of 1.0 nm, response time of 2 s, resolution step width of 1 nm and sensitivity of 20-50 Mdeg. Each spectrum represents the average of 5 scans. Spectra were analyzed using the spectral analysis software and smoothed using ‘adaptive smoothing’ function. Concentrations were determined using the PULCON method. [Wider, Dreier, 2006, J. Am. Chem. Soc. 128:2571-2576]
The incorporation of two lactam bridges induced appreciable helicity, monitored at 222 nm, and was calculated to range between 32-77% helicity. […] This is due to the fact that residues 1-6 (or 1-5 in 6) are not constrained and would not be expected to be in a helical conformation as they feature amino acids that have little or no propensity to adopt helices in proteins. To determine whether the exocyclic regions were the sole cause of low helicity, SEQ ID NO:15 without the N-terminal message was investigated further. This 12-residue peptide features eight residues (K, R, Q) known to favor α-helicity in proteins, and was 60% helical in phosphate buffer by CD spectral analysis. The serine residue is conserved within the sequence of many of these peptides and is known to be a helix breaker.

C57BL/6 mice = experiment: Anti-nociceptive activity in mice, hot plate front paw withdrawal latency; format: in vivo; settings: co-administered 200 pmol with SEQ ID NO:8 (200 pmol)
Method: Mice (C57BL/6; n=45) were brought into the experimental room for at least 30 minutes prior to testing. They were then individually placed on an accredited hot plate heated to 53±0.54° C. and timed until any front paw withdrawal, licking or jumping behaviour was recorded (baseline response). Mice were not left on the hot plate for longer than 30 sec. […] Mice were then individually placed on the hot plate again at time points 1, 5, 15, 30, 45 and 60 min post injection. Each test was video monitored.
In a parallel experiment, agonist of SEQ ID NO:8 was co-administered with the helical antagonist of SEQ ID NO:13, where upon the increased paw withdrawal latency produced by agonist of SEQ ID NO:8 alone was abolished. This confirms that the helix constrained peptide of SEQ ID NO:13 is a potent antagonist of SEQ ID NO:8 in vivo.

ORL-1 receptor [4] = biological target: T1, ORL-1 receptor; experiment: Antagonist functional activity assessed by ERK phosphorylation (pERK) in Neuro-2a cells challenged with 100 nM nociceptin(1-17)-NH2; format: cell-based
Method: as §1, §2, §3, §4, §5, §6

T1 sequence (P35377 whole entry): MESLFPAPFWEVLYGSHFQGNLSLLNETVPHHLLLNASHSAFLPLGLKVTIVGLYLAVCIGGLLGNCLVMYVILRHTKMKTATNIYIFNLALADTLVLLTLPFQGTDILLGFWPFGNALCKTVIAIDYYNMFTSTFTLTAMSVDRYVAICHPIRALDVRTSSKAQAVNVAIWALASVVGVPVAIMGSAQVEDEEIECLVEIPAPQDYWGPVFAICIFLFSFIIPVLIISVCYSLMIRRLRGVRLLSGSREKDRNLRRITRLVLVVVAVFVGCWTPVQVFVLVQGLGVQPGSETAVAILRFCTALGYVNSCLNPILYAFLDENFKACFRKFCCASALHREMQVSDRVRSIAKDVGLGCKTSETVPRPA

## CC(C)C[C@H](NC(=O)[C@H](CCCCN)NC(=O)[C@H](CCCN=C(N)N)NC(=O)[C@H](C)NC(=O)[C@H](CO)NC(=O)[C@H](CCCCN)NC(=O)[C@H](CCCN=C(N)N)NC(=O)[C@H](C)NC(=O)CNC(=O)[C@@H](NC(=O)[C@H](Cc1ccccc1)NC(=O)CNC(=O)CNC(=O)[C@@H](N)Cc1ccccc1)[C@@H](C)O)C(=O)N[C@@H](C)C(=O)N[C@@H](CC(N)=O)C(=O)N[C@@H](CCC(N)=O)C(=O)O [SEQ ID NO:1, reference compound]
[1]
  half-life: ≤ 1 h
Human erythrocytes
  haemolytic activity: Neither of the cyclic peptides tested (SEQ ID NOs:7 AND 8), nor the unconstrained nociceptin(1-17)-OH (SEQ ID NO:1) had any haemolytic activity

## C[C@@H]1NC(=O)[C@@H](NC(=O)[C@H](CCCCN)NC(=O)[C@H](CCCN=C(N)N)NC(=O)[C@@H]2CC(=O)NCCCC[C@H](NC(=O)CNC(=O)[C@@H](NC(=O)[C@H](Cc3ccccc3)NC(=O)CNC(=O)CNC(=O)[C@@H](N)Cc3ccccc3)[C@@H](C)O)C(=O)N[C@@H](CCCN=C(N)N)C(=O)N[C@@H](CCCCN)C(=O)N[C@@H](CO)C(=O)N2)CCCCNC(=O)C[C@@H](C(N)=O)NC(=O)[C@H](CCC(N)=O)NC(=O)[C@H](CC(N)=O)NC1=O [SEQ ID NO:7, H-FGGFTG[KRKSD]RK[KANQD]-NH2]
[1]
  half-life: > 6 h
Human erythrocytes
  haemolytic activity: Neither of the cyclic peptides tested (SEQ ID NOs:7 AND 8), nor the unconstrained nociceptin(1-17)-OH (SEQ ID NO:1) had any haemolytic activity

## C[C@@H](O)[C@H](NC(=O)[C@H](Cc1ccc(F)cc1)NC(=O)CNC(=O)CNC(=O)[C@@H](N)Cc1ccccc1)C(=O)NCC(=O)N[C@H]1CCCCNC(=O)C[C@@H](C(=O)N[C@@H](CCCN=C(N)N)C(=O)N[C@@H](CCCCN)C(=O)N[C@H]2CCCCNC(=O)C[C@@H](C(N)=O)NC(=O)[C@H](CCC(N)=O)NC(=O)[C@H](CC(N)=O)NC(=O)[C@H](CCCCN)NC2=O)NC(=O)[C@H](CO)NC(=O)[C@H](CCCCN)NC(=O)[C@H](CCCN=C(N)N)NC1=O [SEQ ID NO:8, H-FGGF(4-F)TG[KRKSD]RK[KKNQD]-NH2]
[1]
  half-life: > 6 h
Human erythrocytes
  haemolytic activity: Neither of the cyclic peptides tested (SEQ ID NOs:7 AND 8), nor the unconstrained nociceptin(1-17)-OH (SEQ ID NO:1) had any haemolytic activity

## CC(C)C[C@H](NC(=O)[C@H](CCCCN)NC(=O)[C@H](CCCNC(=N)N)NC(=O)[C@H](C)NC(=O)[C@H](CO)NC(=O)[C@H](CCCCN)NC(=O)[C@H](CCCNC(=N)N)NC(=O)[C@H](C)NC(=O)CNC(=O)[C@@H](NC(=O)[C@H](Cc1ccccc1)NC(=O)CNC(=O)CNC(=O)[C@@H](N)Cc1ccccc1)[C@@H](C)O)C(=O)N[C@@H](C)C(=O)N[C@@H](CC(N)=O)C(=O)N[C@@H](CCC(N)=O)C(=O)O [compound 1]
ORL-1 receptor [2]; N2a
  Emax: 90 ± 7%
Circular dichroism
  helicity: 0.02 frac
[3]; 10 mM phosphate buffer (pH 7.4) at 22° C., fH calculated based on θ at 222 nm
  fH (buffer): 0.02
[3]; buffer: TFE 50:50, 22° C.
  fH (TFE*): 0.15

## Ac-[KRKSD]RK[KKNQD]-NH2 (XRKSXRKXKNQX; N-acetyl, cyclic lactams, C-amide) [SEQ ID NO:15]
[3]; phosphate buffer, CD monitored at 222 nm
  helicity: 60%

## BzlGGGF(4-F)TG[KRKSD]RK[KKNQD]-NH2 (XGGXTGXRKSXRKXKNQX; N-benzyl, 4-F-Phe, cyclic lactams, C-amide) [SEQ ID NO:13]
ORL-1 receptor [2]; 1 μM
  agonist activity at single point concentration: neither showed significant agonist activity
C57BL/6 mice
  effect on increased paw withdrawal latency produced by agonist SEQ ID NO:8: abolished
ORL-1 receptor [4]; constrained relative to unconstrained analogue
  improvement in antagonist activity (fold): over four-fold

## BzlGlyGGFT[KARKD][KRKLD]-NH2 (XGGFTXARKXXRKLX; N-benzyl, cyclic lactams, C-amide) [SEQ ID NO:14]
ORL-1 receptor [4]; up to 3 μM
  antagonist activity: abolished antagonist activity
